Patent US9809555B2, “Form of mefenpyr-diethyl, a process for its preparation and use of the same” (ROTAM AGROCHEM INTERNATIONAL COMPANY LIMITED, priority 2015, dated 2017)

What was measured:
[1] = General stability of mefenpyr-diethyl forms (hydrolysis in water or on storage); type: physicochemical; conditions: dissolved or dispersed in water, or during storage exposed to moisture, result in words
Source text: It will generally undergo significant hydrolysis when dissolved or dispersed in water. Furthermore, hydrolysis can occur during storage, particularly where the compound is exposed to moisture. As a result, the stability of mefenpyr-diethyl is of great concern with respect to providing the commercially available formulations. Therefore, there is a need to provide a novel form mefenpyr-diethyl with increased stability in formulations.
Accordingly, in an embodiment, the invention provides a novel crystalline form of mefenpyr-diethyl, termed “crystalline modification I”, and a process for its preparation, as well as its use in agrochemical compositions. […] Accordingly, in an embodiment, the invention also provides compositions for controlling undesirable plant growth, such as weeds, comprising the crystalline modification I of mefenpyr-diethyl with sulfonylurea herbicides, as a mixture with auxiliaries and carriers. The use of the crystalline modification I of mefenpyr-diethyl with sulfonylurea herbicides in the control of undesired plant growth and a method for the same are also provided by embodiments of the invention.

[2] = Stability test: accelerated storage of formulations (CIPAC MT 46.3), mefenpyr-diethyl content by HPLC before and after aging; type: physicochemical; conditions: stored at 54° C. for 1 week
Procedure: The stability of the mefenpyr-diethyl in these compositions was determined by aging samples in heated ovens having the same atmosphere therein, and then comparing the mefenpyr-diethyl content before and after aging to determine relative percentage of hydrolysis (RPH). RPH was calculated by the following equation: […]
Mefenpyr-diethyl content was determined by assaying the compositions with high-pressure liquid chromatography (HPLC) using reverse phase columns and eluants.
Samples prepared in Examples 4, 5 and 6 were stored at 54° C. for 1 week. The procedures are followed according to CIPAC MT 46.3. The concentration of mefenpyr-diethyl was measured at the end of each storage time by HPLC.

[3] = Example 4 oil based suspension concentrate (OD) with iodosulfuron-methyl-sodium, 10 weight % mefenpyr-diethyl
[4] = Example 5 soluble granules (SG) with mesosulfuron-methyl, 7 weight % mefenpyr-diethyl
[5] = Example 6 water dispersible granules (WG) with iodosulfuron-methyl-sodium, 7 weight % mefenpyr-diethyl

SMILES	stability (hydrolysis) ([1]; listed as mefenpyr-diethyl in amorphous state)	RPH % (relative percentage of hydrolysis) [2, 3] [%]	RPH % (relative percentage of hydrolysis) [2, 4] [%]	RPH % (relative percentage of hydrolysis) [2, 5] [%]	stability (hydrolysis) [1]
CCOC(=O)C1=NN(c2ccc(Cl)cc2Cl)C(C)(C(=O)OCC)C1 (racemic) [Amorphous mefenpyr-diethyl, diethyl (RS)-1-(2,4-dichlorophenyl)-5-methyl-2-pyrazoline-3,5-dicarboxylate]	highly unstable	50	40	45	
CCOC(=O)C1=NN(c2ccc(Cl)cc2Cl)C(C)(C(=O)OCC)C1 (racemic) [Mefenpyr-diethyl, crystalline modification I] [diethyl (RS)-1-(2,4-dichlorophenyl)-5-methyl-2-pyrazoline-3,5-dicarboxylate]		0	0	0	increased stability relative to the amorphous form
